Source: US4256642A, “Pharmaceutically active 2,9-dioxatricyclo[4,3,1,0^3,7 ] decanes” (Kali-Chemie Pharma GmbH, priority 1975, dated 1981)

Columns and labels:
[1] = Acute toxicity LD50 i.p. (Mouse); conditions: in vivo, ip
Procedure: (§1) The in vivo activity of representative compounds of the present invention was determined as set forth in Table I below by administration to mice in pharmaceutically effective amounts.

Mouse [2] = assay: Analgesia, Phenylbenzoquinone test (Writing), p.o. (Mouse); assay type: in vivo; conditions: for ED50: po, Phenylbenzoquinone test; for Analgesia relative to Propoxyphene: footnote (b) to analgesia ED50 p.o.
Procedure: as §1
Analgesia ED50 p.o.(a)(*)
(a) Phenylbenzoquinone test (Writing

Mouse [3] = assay: Lowered rectal temp. p.o. (Mouse); assay type: in vivo; conditions: po
Procedure: as §1
Lowered rectal temp. ED50 p.o.(*)

## COC1O[C@H]2O[C@]3(C)[C@@H](O)C[C@H]([C@H]2C)[C@H]13 (some centres unmarked) [compound 1246]
[1]
  LD50: > 800 mg/kg
Mouse [2]
  ED50: 68 mg/kg
Mouse [3]
  ED50: 100 mg/kg

## COC1O[C@H]2O[C@]3(C)[C@H](O)C[C@H]([C@H]2C)[C@H]13 (some centres unmarked) [compound 1561]
[1]
  LD50: > 800 mg/kg
Mouse [2]
  ED50: 100 mg/kg
Mouse [3]
  ED50: 100 mg/kg

## C[C@@H]1[C@H]2OC[C@H]3[C@@H]1C[C@H](O)[C@@]3(C)O2 [compound 2422]
[1]
  LD50: 920 mg/kg
Mouse [2]
  ED50: < 50 mg/kg
Mouse [3]
  ED50: 400 mg/kg

## C[C@@H]1[C@H]2OC[C@H]3[C@@H]1C[C@@H](O)[C@@]3(C)O2 [compound 2455]
[1]
  LD50: 406 mg/kg
Mouse [2]
  Analgesia relative to Propoxyphene: ≥ Propoxyphene
  ED50: < 10 mg/kg
Mouse [3]
  ED50: 10 mg/kg

## CC(=O)O[C@H]1C[C@@H]2[C@H](C)[C@H]3OC[C@@H]2[C@]1(C)O3 [compound 2614]
[1]
  LD50: 822 mg/kg
Mouse [2]
  ED50: < 50 mg/kg
Mouse [3]
  ED50: 100 mg/kg

## C[C@@H]1[C@H]2OC[C@H]3[C@@H]1CC(=O)[C@@]3(C)O2 [compound 2619]
[1]
  LD50: 1600 mg/kg
Mouse [2]
  Analgesia relative to Propoxyphene: ≥ Propoxyphene
  ED50: < 10 mg/kg
Mouse [3]
  ED50: 25 mg/kg

## CNC(=O)O[C@H]1C[C@@H]2[C@H](C)[C@H]3OC[C@@H]2[C@]1(C)O3 [compound 2624]
[1]
  LD50: 739 mg/kg
Mouse [2]
  ED50: < 50 mg/kg
Mouse [3]
  ED50: 32 mg/kg

## CNC(=O)O[C@@H]1C[C@@H]2[C@H](C)[C@H]3OC[C@@H]2[C@]1(C)O3 [compound 2648]
[1]
  LD50: 800 mg/kg
Mouse [2]
  ED50: < 10 mg/kg
Mouse [3]
  ED50: < 100 mg/kg
